ChEMBL document CHEMBL1131037, “Structure-based design, synthesis, and biological evaluation of irreversible human rhinovirus 3C protease inhibitors. 2. Peptide structure-activity studies” (J Med Chem, 1998)

Assays:
[1] = tested on: rhinovirus B14; assay: Antiviral activity against HRV-14 in cell culture; assay type: functional, organism-based; conditions: Rhinovirus B
[2] = target: T1, Human rhinovirus A protease (Human rhinovirus sp.) (UniProt Q4U254); assay: Binding affinity on human Rhinovirus 3C protease (rhinovirus serotype 14)
T1 sequence (whole entry): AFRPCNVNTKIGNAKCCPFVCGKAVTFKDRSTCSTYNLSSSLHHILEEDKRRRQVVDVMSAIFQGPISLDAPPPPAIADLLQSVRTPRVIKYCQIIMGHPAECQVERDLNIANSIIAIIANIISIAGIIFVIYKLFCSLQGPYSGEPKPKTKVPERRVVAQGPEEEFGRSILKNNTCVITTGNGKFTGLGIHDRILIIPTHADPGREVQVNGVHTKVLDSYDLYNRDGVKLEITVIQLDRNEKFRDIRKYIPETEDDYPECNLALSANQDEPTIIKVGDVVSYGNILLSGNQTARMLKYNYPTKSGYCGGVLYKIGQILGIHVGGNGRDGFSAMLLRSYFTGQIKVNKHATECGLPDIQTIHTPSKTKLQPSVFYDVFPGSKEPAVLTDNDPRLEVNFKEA

[3] = target: T1, Human rhinovirus A protease (Human rhinovirus sp.); assay: Binding affinity on human Rhinovirus 3C protease (rhinovirus serotype 16)
[4] = tested on: rhinovirus B14; assay: Cytotoxic activity against HRV-14 in cell culture; assay type: functional, rhinovirus 14; conditions: Rhinovirus B
[5] = target: T1, Human rhinovirus A protease (Human rhinovirus sp.); assay: (§1) Binding affinity on human Rhinovirus 3C protease (rhinovirus serotype 2)
[6] = tested on: HeLa; assay: Compound was tested for antiviral activity against HRV-2 in cell culture; assay type: functional, cell-based; conditions: Homo sapiens
[7] = target: T1, Human rhinovirus A protease (Human rhinovirus sp.); assay: as §1; assay type: functional
[8] = target: T1, Human rhinovirus A protease (Human rhinovirus sp.); assay: Binding affinity on human Rhinovirus 3C protease (rhinovirus serotype 14); Slow

| SMILES | EC50 [1] [µM] | K obs / 1 [2] [M⁻¹ s⁻¹] | K obs / 1 [3] [M⁻¹ s⁻¹] | CC50 [4] [µM] | K obs / 1 [5] [M⁻¹ s⁻¹] | EC50 [6] [µM] | K obs / 1 [7] [M⁻¹ s⁻¹] | K obs / 1 [8] |
| --- | --- | --- | --- | --- | --- | --- | --- | --- |
| CCOC(=O)/C=C/[C@H](CCC(N)=O)NC(=O)[C@H](Cc1ccc(OC)cc1)NC(=O)[C@H](CC(C)C)NC(=O)OCc1ccccc1 | 1.7 | 29000 | 3400 | > 320 | 1100 | 14 |  |  |
| CCOC(=O)/C=C/[C@H](CCC(N)=O)NC(=O)[C@H](Cc1ccc(F)cc1)NC(=O)[C@H](CC(C)C)NC(=O)OCc1ccccc1 | 1.8 | 46000 | 9200 | > 320 | 2400 | 5.6 |  |  |
| CCOC(=O)/C=C/[C@H](CCC(N)=O)NC(=O)[C@H](Cc1ccccc1)NC(=O)[C@H](CC(C)C)NC(=O)SCC | 0.46 | 91300 | 20000 | > 320 | 8900 | 1 |  |  |
| CCOC(=O)/C=C/[C@H](CCC(N)=O)NC(=O)[C@H](Cc1ccccc1)NC(=O)[C@H](CC(C)C)NC(=O)SCc1ccccc1 | 0.27 | 280000 | 75000 | 320 | 28400 | 1.9 |  |  |
| CCOC(=O)/C=C/[C@H](CCC(N)=O)NC(=O)[C@H](CC1CCCCC1)NC(=O)[C@H](CC(C)C)NC(=O)OCc1ccccc1 | 1.9 | 16300 | 3500 | > 320 |  |  | 700 |  |
| CCOC(=O)/C=C/[C@H](CCC(N)=O)NC(=O)[C@H](Cc1cccs1)NC(=O)[C@H](CC(C)C)NC(=O)OCc1ccccc1 | 0.56 | 20000 | 4500 | > 100 | 1800 |  |  |  |
| CCOC(=O)/C=C/[C@H](CCC(N)=O)NC(=O)CNC(=O)[C@H](CC(C)C)NC(=O)OCc1ccccc1 | 141 |  |  | > 320 |  |  |  | Slow |
| CCOC(=O)/C=C/[C@H](CCC(N)=O)NC(=O)[C@H](Cc1ccc(CCO)cc1)NC(=O)[C@H](CC(C)C)NC(=O)OCc1ccccc1 | 3.5 | 43100 | 1300 | > 320 | 700 |  |  |  |
